Measured values published in paper PMC5855801, “Benzothiophenone Derivatives Targeting Mutant Forms of Estrogen Receptor-α in Hormone-Resistant Breast Cancers” (International Journal of Molecular Sciences, 2018).

How the values were obtained:
[1] = tested on: ERα− MDA-MB-231 cells; test: Presto Blue cell viability assay, MDA-MB-231; type: cell-based, human; conditions: ERα− MDA-MB-231, 96 h
[2] = tested on: PC3 cells; test: Presto Blue cell viability assay, PC3; type: cell-based, human; conditions: PC3, 50 µM, 96 h
Description: Cell viability was determined using the Presto Blue cell viability assay (Thermo Fisher Scientific, Waltham, MA, USA). Cells were seeded in clear bottom black-walled 96-well plates at a density of 5 × 10^3 cells/well in 100 μL of their respective media. On the following day, the cells were treated with test compounds (0.001–22.5 μM) in the presence of 1 nM E2 and incubated at 37 °C. After 96 h, 30 μL of Presto Blue reagent was added and incubated for 10 min at 37 °C. The fluorescent signal from viable cells was measured at 590 nm.
Supplementary Materials: Benzothiophenone Derivatives Targeting Mutant Forms of Estrogen Receptor-α in Hormone-Resistant Breast Cancers
Figure S1. Effect of VPC-16606 on viability of PC3 cells as measured in the Presto Blue assay. […]
Figure S2. TR-FRET Assay showing displacement of Fluorescein labelled PGC1 α peptide by VPC-16606 upon incubation with ER β-LBD. OHT was used at 1µM. Error bars represent standard deviation for two independent experiments performed in triplicates. […]

[3] = target: T1, progesterone receptor (PR) (Homo sapiens, UniProt P06401); test: Luciferase reporter selectivity assay in PC3 cells, PR; type: cell-based; conditions: 24 h
T1 construct: expressed in transfected cells; host or cells: PC3
T1 sequence (P06401 1-933): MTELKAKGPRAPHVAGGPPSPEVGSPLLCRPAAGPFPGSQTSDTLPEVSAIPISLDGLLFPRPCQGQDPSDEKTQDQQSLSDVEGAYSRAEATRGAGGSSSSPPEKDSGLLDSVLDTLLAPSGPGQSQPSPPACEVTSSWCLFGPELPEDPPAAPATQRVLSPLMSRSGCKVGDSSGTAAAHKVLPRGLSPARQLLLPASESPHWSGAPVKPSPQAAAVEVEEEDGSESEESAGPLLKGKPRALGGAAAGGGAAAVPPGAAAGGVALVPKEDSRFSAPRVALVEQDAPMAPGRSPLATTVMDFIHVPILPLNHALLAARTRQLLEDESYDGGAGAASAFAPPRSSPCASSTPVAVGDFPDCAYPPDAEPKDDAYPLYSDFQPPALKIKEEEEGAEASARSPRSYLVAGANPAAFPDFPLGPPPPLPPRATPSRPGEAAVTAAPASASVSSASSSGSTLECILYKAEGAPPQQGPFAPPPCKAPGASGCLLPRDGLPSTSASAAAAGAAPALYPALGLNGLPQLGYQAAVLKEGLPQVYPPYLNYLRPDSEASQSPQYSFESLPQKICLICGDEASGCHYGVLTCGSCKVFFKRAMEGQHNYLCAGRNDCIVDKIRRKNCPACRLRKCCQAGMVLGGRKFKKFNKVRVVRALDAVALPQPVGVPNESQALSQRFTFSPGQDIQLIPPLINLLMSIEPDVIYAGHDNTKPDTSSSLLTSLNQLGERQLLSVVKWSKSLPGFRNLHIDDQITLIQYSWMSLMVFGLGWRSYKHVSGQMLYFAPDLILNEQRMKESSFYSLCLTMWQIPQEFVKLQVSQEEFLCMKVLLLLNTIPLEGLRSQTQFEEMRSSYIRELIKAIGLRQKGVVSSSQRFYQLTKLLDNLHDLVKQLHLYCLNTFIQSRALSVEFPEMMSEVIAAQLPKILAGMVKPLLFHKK
Description: Figure 4 Further activity profile of VPC-16606. (A,B) Chromatin immunoprecipitation (ChIP) analysis of ERα binding to the pS2 enhancer, or the GAPDH promoter, in MCF7 cells. Where indicated, ERα was stimulated with 1 nM E2 or dimethyl sulfoxide (DMSO) alone, and the compound was administered at a 6 μM concentration. Sheared chromatin-protein complexes were precipitated with the ERα antibody, reverse cross-linked and analyzed by quantitative PCR. The results are normalized as fold enrichment over precipitation with a rabbit isotype control IgG antibody for each condition tested. Error bars indicate standard error of the mean (SEM) for 3 independent experiments performed in triplicates. Fold enrichment from the compound tested condition (ERα antibody) was statistically compared against DMSO + E2 with a two-tailed t-test (unpaired) *** indicates p-value <0.001. (C) Specificity of VPC-16606 was evaluated in the luciferase reporter assay. PC3 cells were transfected with plasmids expressing androgen receptor (AR), progesterone receptor (PR) or glucocorticoid receptor (GR) along with their responsive luciferase reporter constructs bearing androgen response element (ARE), progesterone response element (PRE) or glucocorticoid response element (GRE), respectively. […] Y-axis represents relative luminescence (RLU) after normalizing to constitutive renilla reporter. […]

`CC(=O)N(/N=C1\Sc2c(C)cccc2C1=O)c1ccccc1Cl` [VPC-16606] was tested, and the “Cell growth (Presto Blue viability)” value [1] was “without any effect”, the “Cell viability of PC3 cells” value [2] was “affects cell viability” and the “Effect on PR activity (luciferase)” value ([3]; 50 µM) was “some effect”. The “Effect on PR activity (luciferase)” value ([3]; doses up to 25 µM) was “does not affect the activity”.
